# Measurements taken from article PMC8151276, “An Integrated Approach toward NanoBRET Tracers for Analysis of GPCR Ligand Engagement” (Molecules, 2021).
# Tests used:
# Assay type in all cases: binding
# AGTR2 = target: T1, AGTR2 (Homo sapiens, UniProt P50052); assay: NanoBRET screen HiBiT-AGTR2 in HEK293
# T1 construct: purchased Promega (in-house HiBiT-GPCR construct library, NanoBRET)
# T1 sequence (P50052 1-363): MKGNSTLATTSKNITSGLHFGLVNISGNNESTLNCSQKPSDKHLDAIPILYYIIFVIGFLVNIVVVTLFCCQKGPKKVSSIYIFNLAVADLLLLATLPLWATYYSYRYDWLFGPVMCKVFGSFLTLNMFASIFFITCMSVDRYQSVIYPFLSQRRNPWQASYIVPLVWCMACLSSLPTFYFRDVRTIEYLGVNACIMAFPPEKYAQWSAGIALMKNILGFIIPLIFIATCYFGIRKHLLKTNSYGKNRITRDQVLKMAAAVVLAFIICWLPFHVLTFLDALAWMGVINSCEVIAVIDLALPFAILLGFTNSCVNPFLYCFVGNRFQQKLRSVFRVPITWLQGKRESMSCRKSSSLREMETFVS
# Method: (§1) Each tracer candidate was screened across the entire library of HiBiT-GPCR constructs using NanoBRET as the detection modality. As depicted in Figure 4A, the specificity of interactions was evaluated through decrease in BRET due to competitive displacement of a bound tracer by excess parental compound. Each tracer was analyzed for binding to each HiBiT-GPCR fusion in the absence and in the presence of competing parental compound. Briefly, HEK293 cells were transfected with HiBiT-GPCR constructs diluted into promoterless DNA to reduce expression and maximize translocation to the cell surface. Each tracer candidate was then screened at concentrations of 1 μM and 0.1 μM across cells expressing these fusions. Cells were treated for 1.5 h with tracer either alone or in the presence of 20 μM competing parental compound (i.e., control). BRET was measured upon addition of purified LgBiT and subsequent complementation with HiBiT genetically fused to a GPCR. The specificity of interactions was assessed through a decrease in BRET signal due to competitive displacement of the bound tracer. To further gauge the robustness of these interactions, the fold response over the control (i.e., BRETtracer/BRETcontrol) was calculated. We chose a 1.5-fold response, which translates to ≥7-fold signal over noise as the minimal threshold required to score an interaction as positive. […]. Below we highlight the screening results obtained for our exemplary fluorescent tracers based on Clozapine, Amitriptyline and AZD1283.
# (§2) HiBiT-GPCR DNA constructs were diluted in 10 mM Tris pH 8 to a final concentration of 0.01 μg/μL, arrayed in 96-well plates and stored at −20 °C. For transfection, HEK293 cells were suspended in Opti-MEM (without phenol red) supplemented with 2% fetal bovine serum (Seradigm) and 100 units/mL penicillin–streptomycin (Gibco) at a final concentration of 220,000 cells/mL and dispensed into white 96-well plates at 90 μL/well. Subsequent transfections and screens were carried using an Agilent Bravo Automated Liquid Handling Platform. First, the 96-well HiBiT DNA arrays were diluted 25-fold in Opti-MEM (without serum or phenol red) to a final concentration of 0.0004 μg/μL and 20 μL of the diluted DNAs were transferred into new 96-well plates. Next, promoterless carrier DNA (1 μg/μL) was diluted 25-fold (0.04 μg/μL) and then dispensed into the diluted arrays at 20 μL/well. Following brief mixing, Viafect transfection reagent (Promega) diluted 16-fold into Opti-MEM was dispensed into the plates at 40 μL/well. After mixing by pipetting, plates were incubated for 10 min on the pipetting station deck. The DNA-transfection reagent complexes were then added to plates containing cells. To facilitate the screen, 10 μL of DNA-transfection reagent complexes were added in duplicates to the top 4 and bottom 4 rows, resulting in two identical 48-well arrays per plate. Plates with transfected cells were incubated for 18–20 h at 37 °C/5% CO2. A screen of each tracer across the entire library using two different concentrations requires duplicate plates of transfected cells. Depending on the number of tracers being screened, transfections can be scaled up using the same ratios. The next day, for each tracer, four 20× screening solutions in tracer dilution buffer (Promega) were prepared: two duplicates at final concentration of 20 μM and two duplicates at a final concentration of 2 μM. A competing unmodified compound was added to one of each duplicate at a final concentration of 400 μM. The four resulting solutions were diluted 4-fold in Opti-MEM without serum or phenol red to generate 5× solutions (5 µM and 0.5 µM tracer +/− 100 μM competing compound). To screen the library, a BioTek MultiFlo FX liquid dispenser was used to dispense 22.5 µL of tracer solution to the top 4 rows and 22.5 µL tracer + competing compound solution to the 4 bottom rows. Plates were briefly mixed on an orbital shaker and incubated for 1.5 h at room temperature. […]
# VIPR2 = target: T2, VIPR2 (Homo sapiens, UniProt P41587); assay: NanoBRET screen HiBiT-VIPR2 in HEK293
# T2 construct: purchased Promega (in-house HiBiT-GPCR construct library, NanoBRET)
# T2 sequence (P41587 24-438): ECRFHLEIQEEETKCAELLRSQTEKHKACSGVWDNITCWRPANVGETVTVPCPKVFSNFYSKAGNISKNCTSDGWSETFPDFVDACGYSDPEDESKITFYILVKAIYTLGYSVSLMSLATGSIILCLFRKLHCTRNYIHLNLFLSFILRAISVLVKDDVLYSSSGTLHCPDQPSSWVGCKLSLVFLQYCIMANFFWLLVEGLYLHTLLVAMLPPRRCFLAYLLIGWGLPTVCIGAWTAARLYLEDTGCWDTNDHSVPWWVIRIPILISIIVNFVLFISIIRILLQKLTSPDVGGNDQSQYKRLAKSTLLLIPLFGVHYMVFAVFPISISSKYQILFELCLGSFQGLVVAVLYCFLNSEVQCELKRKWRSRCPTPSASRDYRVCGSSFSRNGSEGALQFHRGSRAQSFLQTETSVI
# Method: as §1, §2
# RXFP2 = target: T3, RXFP2 (Homo sapiens, UniProt Q8WXD0); assay: NanoBRET screen HiBiT-RXFP2 in HEK293
# T3 construct: purchased Promega (in-house HiBiT-GPCR construct library, NanoBRET)
# Method: as §1, §2
# PTGER4 = target: T4, PTGER4 (Homo sapiens, UniProt P35408); assay: NanoBRET screen HiBiT-PTGER4 in HEK293
# T4 construct: purchased Promega (in-house HiBiT-GPCR construct library, NanoBRET)
# Method: as §1, §2
# GRM3 = target: T5, GRM3 (Homo sapiens, UniProt Q14832); assay: NanoBRET screen HiBiT-GRM3 in HEK293
# T5 construct: purchased Promega (in-house HiBiT-GPCR construct library, NanoBRET)
# Method: as §1, §2
# T5 sequence (Q14832 23-879): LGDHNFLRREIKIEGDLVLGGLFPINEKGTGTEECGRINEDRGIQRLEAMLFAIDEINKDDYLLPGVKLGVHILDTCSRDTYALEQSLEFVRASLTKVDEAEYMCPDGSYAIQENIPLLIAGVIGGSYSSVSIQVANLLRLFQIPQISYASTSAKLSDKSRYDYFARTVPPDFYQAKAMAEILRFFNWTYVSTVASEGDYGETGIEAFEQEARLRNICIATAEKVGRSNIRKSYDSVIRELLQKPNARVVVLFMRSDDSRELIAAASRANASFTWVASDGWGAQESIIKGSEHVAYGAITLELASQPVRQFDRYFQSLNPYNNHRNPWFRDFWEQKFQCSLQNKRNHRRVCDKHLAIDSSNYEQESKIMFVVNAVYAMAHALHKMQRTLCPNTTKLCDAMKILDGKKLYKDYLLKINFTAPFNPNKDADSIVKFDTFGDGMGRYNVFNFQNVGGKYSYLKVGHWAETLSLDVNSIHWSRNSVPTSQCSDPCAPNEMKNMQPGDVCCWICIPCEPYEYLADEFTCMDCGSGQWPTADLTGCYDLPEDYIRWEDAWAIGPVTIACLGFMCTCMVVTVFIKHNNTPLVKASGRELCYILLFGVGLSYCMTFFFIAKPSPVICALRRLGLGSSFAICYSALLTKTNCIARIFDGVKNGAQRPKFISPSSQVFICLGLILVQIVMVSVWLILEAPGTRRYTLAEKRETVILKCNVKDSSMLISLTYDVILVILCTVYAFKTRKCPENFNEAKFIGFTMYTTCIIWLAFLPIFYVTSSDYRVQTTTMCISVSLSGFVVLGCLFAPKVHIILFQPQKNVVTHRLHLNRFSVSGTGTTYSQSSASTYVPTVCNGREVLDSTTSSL
# T3 sequence (Q8WXD0 whole entry): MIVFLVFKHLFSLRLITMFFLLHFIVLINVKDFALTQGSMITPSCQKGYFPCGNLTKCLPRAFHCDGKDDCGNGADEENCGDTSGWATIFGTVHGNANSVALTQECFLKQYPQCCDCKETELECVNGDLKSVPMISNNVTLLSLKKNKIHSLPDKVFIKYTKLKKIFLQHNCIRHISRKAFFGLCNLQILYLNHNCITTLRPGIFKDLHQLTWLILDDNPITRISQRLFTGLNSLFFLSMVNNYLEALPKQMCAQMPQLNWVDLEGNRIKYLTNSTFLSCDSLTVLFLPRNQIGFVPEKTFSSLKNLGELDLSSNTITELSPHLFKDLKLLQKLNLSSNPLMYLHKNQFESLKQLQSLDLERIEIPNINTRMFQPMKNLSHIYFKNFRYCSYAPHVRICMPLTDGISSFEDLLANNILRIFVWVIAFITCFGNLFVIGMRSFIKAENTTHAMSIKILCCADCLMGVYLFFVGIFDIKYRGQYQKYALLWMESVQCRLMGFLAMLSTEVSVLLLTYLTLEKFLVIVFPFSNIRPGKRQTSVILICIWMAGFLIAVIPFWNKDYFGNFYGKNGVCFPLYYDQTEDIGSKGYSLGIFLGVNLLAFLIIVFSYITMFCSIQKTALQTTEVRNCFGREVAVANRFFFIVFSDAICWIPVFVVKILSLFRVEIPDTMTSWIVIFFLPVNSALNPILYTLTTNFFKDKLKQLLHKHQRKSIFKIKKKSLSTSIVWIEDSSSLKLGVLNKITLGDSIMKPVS
# T4 sequence (P35408 whole entry): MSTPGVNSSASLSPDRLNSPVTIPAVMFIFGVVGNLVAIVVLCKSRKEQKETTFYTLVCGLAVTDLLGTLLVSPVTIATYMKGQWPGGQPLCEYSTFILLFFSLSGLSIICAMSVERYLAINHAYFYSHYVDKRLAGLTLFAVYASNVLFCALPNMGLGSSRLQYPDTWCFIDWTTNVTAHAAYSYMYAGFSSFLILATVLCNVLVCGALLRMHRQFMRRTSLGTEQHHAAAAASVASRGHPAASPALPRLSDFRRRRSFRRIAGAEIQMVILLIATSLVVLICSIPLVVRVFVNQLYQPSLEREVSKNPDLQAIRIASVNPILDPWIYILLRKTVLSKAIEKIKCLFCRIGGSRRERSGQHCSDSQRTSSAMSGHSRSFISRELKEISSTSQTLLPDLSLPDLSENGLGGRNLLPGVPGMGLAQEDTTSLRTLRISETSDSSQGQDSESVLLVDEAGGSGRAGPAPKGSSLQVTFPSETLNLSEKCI
SMILES,"NanoBRET Fold Response (AGTR2; AGTR2, tracer 0.1μM)","NanoBRET Fold Response (AGTR2; AGTR2, tracer 1μM)","NanoBRET Fold Response (VIPR2; VIPR2, tracer 0.1μM)","NanoBRET Fold Response (VIPR2; VIPR2, tracer 1μM)","NanoBRET Fold Response (RXFP2; RXFP2, tracer 0.1μM)","NanoBRET Fold Response (RXFP2; RXFP2, tracer 1μM)","NanoBRET Fold Response (PTGER4; PTGER4, tracer 0.1μM)","NanoBRET Fold Response (PTGER4; PTGER4, tracer 1μM)","NanoBRET Fold Response (GRM3; GRM3, tracer 0.1μM)","NanoBRET Fold Response (GRM3; GRM3, tracer 1μM)",NanoBRET Fold Response (AGTR2; 0.1μM tracer),NanoBRET Fold Response (AGTR2; 1μM tracer),NanoBRET Fold Response (VIPR2; 0.1μM tracer),NanoBRET Fold Response (VIPR2; 1μM tracer),NanoBRET Fold Response (RXFP2; 0.1μM tracer),NanoBRET Fold Response (RXFP2; 1μM tracer),NanoBRET Fold Response (PTGER4; 0.1μM tracer),NanoBRET Fold Response (PTGER4; 1μM tracer),NanoBRET Fold Response (GRM3; 0.1μM tracer),NanoBRET Fold Response (GRM3; 1μM tracer)
Cc1cc2c(s1)Nc1ccccc1N=C2N1CCN(CCCNC(=O)CCOCCOCCOCCOCCNC(=O)CCc2ccc3n2[B-](F)(F)[N+]2=C(c4ccc[nH]4)C=CC2=C3)CC1 [Olanzapine-a-2-NB590],1.12,0.87,1.00,1.05,0.27,0.46,1.02,1.07,1.02,1.02,,,,,,,,,,
CCCn1c(=O)c2[nH]c(-c3ccc(OCC(=O)NCCNC(=O)CCOCCNC(=O)c4ccc(CNC(=O)CCc5ccc6n5[B-](F)(F)[N+]5=C(c7ccc[nH]7)C=CC5=C6)cc4)cc3)nc2n(CCC)c1=O [XAC-3-NB590],1.24,1.09,0.72,0.91,1.20,1.28,1.15,1.01,1.02,1.10,,,,,,,,,,
COc1ccc2c(n1)c(CCNC(C)=O)cn2CCNC(=O)CCc1ccc2n1[B-](F)(F)[N+]1=C(c3ccc[nH]3)C=CC1=C2 [Azamelatonin-1-NB590],,,,,,,,,,,1.23,0.87,0.99,0.99,1.10,1.34,1.06,0.96,0.95,1.02
